From patent US9232792B2, “Method for promoting plant growth” (SUMITOMO CHEMICAL COMPANY, LIMITED, priority 2011, dated 2016)

System: Wheat (cultivar: Apogee)
Assay: Test Example 6: reduction of high-temperature stress by spraying treatment of wheat
Assay type: in vivo
Settings: 36° C./32° C. for 7 days, 90 days after stress
Description: Five wheat seeds were sown in the culture soil (AISAI) in each plastic pot and cultivated for 28 days in an artificial weather control room under the conditions of a temperature of 18° C. in daytime/15° C. in night, and an illuminance of 7,000 lux. Before the stress test, 3 individuals per pot were removed.
To 0.5 mg of the present compound 1 were added 120 mg of a mixture (weight ratio 1:1) of white carbon and ammonium polyoxyethylene alkyl ether sulfate and 300 μl of water. The mixture was finely ground by a wet grinding method to obtain a flowable formulation of the present compound 1. This flowable formulation was diluted with 50 ml or 500 ml of water. The mixture was diluted with RINO (manufactured by NIHON NOHYAKU CO., LTD) as a spreading agent to 5,000-fold dilution to obtain a spray solution containing 10 ppm or 1 ppm of the present compound 1. A sufficient amount of the spray solution was applied to the wheat seedlings by using an automatic spraying machine.
In addition, a flowable formulation without the present compound 1 was prepared and then sprayed. This is called as a non-treated group.
The tested plants at 28 days after the sowing were cultivated for 7 days in an artificial weather control room under the conditions of a temperature of 36° C. in daytime/32° C. in night, a humidity of 50% in daytime/60% in night, an illuminance of 7,000 lux, and a day length of 12 hours.
After the high-temperature stress treatment, the plants were cultivated for 4 days in an artificial weather control room under the conditions of a temperature of 18° C. in daytime/15° C. in night, and a illuminance of 7,000 lux. Then, 90 days after the high-temperature stress treatment, the number and the weight of seeds in ears of the tested plants in 7 or 8 pots were measured, and the average values of the number and the weight of seeds per one ear were calculated. As a result, the number and the weight of seeds in the wheat plants treated with the present compound 1 at a concentration of 1 ppm or 10 ppm were much larger those in the non-treated group, in which the wheat plants were not treated with the present compound 1.

O=C(O)c1cc2cc(C(F)(F)F)ccc2s1 [The present compound 1, 5-(trifluoromethyl)benzo[b]thiophene-2-carboxylic acid]
much larger: number of seeds per ear vs non-treated group (spray 1 ppm) | weight of seeds per ear vs non-treated group (spray 1 ppm) | number of seeds per ear vs non-treated group (spray 10 ppm) | weight of seeds per ear vs non-treated group (spray 10 ppm)
